Columns and labels:
foxtail, giant [1] = test: Test C preemergence; assay type: in vivo, Setaria faberi
Method in brief: (§1)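 Pre: seeds in loam/sand, directed soil spray. Post: 1–2 leaf plants, 2–10 cm. Cmpd in non-phytotoxic solvent + surfactant. Greenhouse 10 d; visual rating vs untreated, 0 = none, 100 = complete control.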

horseweed = test: Test C postemergence; assay type: in vivo, Erigeron canadensis; conditions: 10 days, 0 to 100 scale (0 no effect, 100 complete control)
Method in brief: as §1

ragweed [2] = test: Test C preemergence; assay type: in vivo, Ambrosia artemisiifolia
Method in brief: as §1

soybean [3] = test: Test C postemergence; assay type: in vivo, Glycine max; conditions: 10 days, 0 to 100 scale (0 no effect, 100 complete control)
Method in brief: as §1

wheat [4] = test: Test C postemergence; assay type: in vivo, Triticum aestivum; conditions: 10 days, 0 to 100 scale (0 no effect, 100 complete control)
Method in brief: as §1

barnyardgrass [5] = test: Test C preemergence; assay type: in vivo, Echinochloa crusgalli
Method in brief: as §1

pigweed, palmer [6] = test: Test C postemergence; assay type: in vivo, Amaranthus palmeri; conditions: 10 days, 0 to 100 scale (0 no effect, 100 complete control)
Method in brief: as §1

corn [7] = test: Test C preemergence; assay type: in vivo, Zea mays
Method in brief: as §1

foxtail, giant [8] = test: Test C postemergence; assay type: in vivo, Setaria faberi; conditions: 10 days, 0 to 100 scale (0 no effect, 100 complete control)
Method in brief: as §1

corn [9] = test: Test C postemergence; assay type: in vivo, Zea mays; conditions: 10 days, 0 to 100 scale (0 no effect, 100 complete control)
Method in brief: as §1

galium = test: Test C postemergence; assay type: in vivo, Galium aparine; conditions: 10 days, 0 to 100 scale (0 no effect, 100 complete control)
Method in brief: as §1

ragweed [10] = test: Test C postemergence; assay type: in vivo, Ambrosia artemisiifolia; conditions: 10 days, 0 to 100 scale (0 no effect, 100 complete control)
Method in brief: as §1

kochia [11] = test: Test C preemergence; assay type: in vivo, Bassia scoparia
Method in brief: as §1

barnyardgrass [12] = test: Test D flooded paddy test; assay type: in vivo, Echinochloa crus-galli; conditions: 250 g ai/ha, applied to paddy water, visual rating after 13 to 14 days, scale 0 to 100 (0 no effect, 100 complete control)
Method in brief: (§2)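 Seedlings reached the 2-leaf stage, then pots were flooded to 3 cm over the soil surface. Compound was applied into the water, depth was maintained, and plants stayed in the greenhouse 13 to 14 days before visual scoring (0–100) relative to controls.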

ducksalad = test: Test D flooded paddy test; assay type: in vivo, Heteranthera limosa; conditions: 250 g ai/ha, applied to paddy water, visual rating after 13 to 14 days, scale 0 to 100 (0 no effect, 100 complete control)
Method in brief: as §2

soybean [13] = test: Test C preemergence; assay type: in vivo, Glycine max
Method in brief: as §1

ryegrass, Italian [14] = test: Test C preemergence; assay type: in vivo, Lolium multiflorum
Method in brief: as §1

sedge, umbrella = test: Test D flooded paddy test; assay type: in vivo, Cyperus difformis; conditions: 250 g ai/ha, applied to paddy water, visual rating after 13 to 14 days, scale 0 to 100 (0 no effect, 100 complete control)
Method in brief: as §2

oat, wild [15] = test: Test C postemergence; assay type: in vivo, Avena fatua; conditions: 10 days, 0 to 100 scale (0 no effect, 100 complete control)
Method in brief: as §1

blackgrass [16] = test: Test C postemergence; assay type: in vivo, Alopecurus myosuroides; conditions: 10 days, 0 to 100 scale (0 no effect, 100 complete control)
Method in brief: as §1

ryegrass, Italian [17] = test: Test C postemergence; assay type: in vivo, Lolium multiflorum; conditions: 10 days, 0 to 100 scale (0 no effect, 100 complete control)
Method in brief: as §1

pigweed, palmer [18] = test: Test C preemergence; assay type: in vivo, Amaranthus palmeri
Method in brief: as §1

kochia [19] = test: Test C postemergence; assay type: in vivo, Bassia scoparia; conditions: 10 days, 0 to 100 scale (0 no effect, 100 complete control)
Method in brief: as §1

blackgrass [20] = test: Test C preemergence; assay type: in vivo, Alopecurus myosuroides
Method in brief: as §1

oat, wild [21] = test: Test C preemergence; assay type: in vivo, Avena fatua
Method in brief: as §1

rice = test: Test D flooded paddy test; assay type: in vivo, Oryza sativa; conditions: 250 g ai/ha, applied to paddy water, visual rating after 13 to 14 days, scale 0 to 100 (0 no effect, 100 complete control)
Method in brief: as §2

wheat [22] = test: Test C preemergence; assay type: in vivo, Triticum aestivum
Method in brief: as §1

barnyardgrass [23] = test: Test C postemergence; assay type: in vivo, Echinochloa crusgalli; conditions: 10 days, 0 to 100 scale (0 no effect, 100 complete control)
Method in brief: as §1

[24] = 500 g ai/ha, preemergence, 0 to 100 scale (0 no effect, 100 complete control)
[25] = Preemergence, 125 g ai/ha, 0 to 100 scale, 0 no effect, 100 complete control

Cc1ncn(-c2cc(C(=O)N3CC(C(F)(F)F)Oc4c(Cl)cccc43)ccn2)n1 (stereo not shown) [Compound 321]
Foxtail, Giant plant response rating (foxtail, giant [1]; [24]): 100 | Plant response rating, Foxtail, Giant (foxtail, giant [1]; [25]): 100 | Plant response rating, Horseweed (horseweed; 500 g ai/ha, postemergence): 0 | Plant response rating, Horseweed (horseweed; Postemergence, 125 g ai/ha): 0 | Ragweed plant response rating (ragweed [2]; [24]): 80 | Plant response rating, Ragweed (ragweed [2]; [25]): 0 | Plant response rating, Soybean (soybean [3]; 500 g ai/ha, postemergence): 100 | Plant response rating, Soybean (soybean [3]; Postemergence, 125 g ai/ha): 90 | Plant response rating, Wheat (wheat [4]; 500 g ai/ha, postemergence): 80 | Plant response rating, Wheat (wheat [4]; Postemergence, 125 g ai/ha): 20 | Barnyardgrass plant response rating (barnyardgrass [5]; [24]): 100 | Plant response rating, Barnyardgrass (barnyardgrass [5]; [25]): 40 | Plant response rating, Pigweed, Palmer (pigweed, palmer [6]; 500 g ai/ha, postemergence): 60 | Plant response rating, Pigweed, Palmer (pigweed, palmer [6]; Postemergence, 125 g ai/ha): 10 | Corn plant response rating (corn [7]; [24]): 40 | Plant response rating, Corn (corn [7]; [25]): 10 | Plant response rating, Foxtail, Giant (foxtail, giant [8]; 500 g ai/ha, postemergence): 90 | Plant response rating, Foxtail, Giant (foxtail, giant [8]; Postemergence, 125 g ai/ha): 70 | Plant response rating, Corn (corn [9]; 500 g ai/ha, postemergence): 90 | Plant response rating, Corn (corn [9]; Postemergence, 125 g ai/ha): 50 | Plant response rating, Galium (galium; 500 g ai/ha, postemergence): 100 | Plant response rating, Galium (galium; Postemergence, 125 g ai/ha): 100 | Plant response rating, Ragweed (ragweed [10]; 500 g ai/ha, postemergence): 40 | Plant response rating, Ragweed (ragweed [10]; Postemergence, 125 g ai/ha): 30 | Kochia plant response rating (kochia [11]; [24]): 90 | Plant response rating, Kochia (kochia [11]; [25]): 20 | Plant response rating, Barnyardgrass (Flood) (barnyardgrass [12]): 0 | Plant response rating, Ducksalad (Flood) (ducksalad): 0 | Soybean plant response rating (soybean [13]; [24]): 40 | Plant response rating, Soybean (soybean [13]; [25]): 0 | Ryegrass, Italian plant response rating (ryegrass, Italian [14]; [24]): 100 | Plant response rating, Ryegrass, Italian (ryegrass, Italian [14]; [25]): 90 | Plant response rating, Sedge, Umbrella (Flood) (sedge, umbrella): 0 | Plant response rating, Oat, Wild (oat, wild [15]; 500 g ai/ha, postemergence): 90 | Plant response rating, Oat, Wild (oat, wild [15]; Postemergence, 125 g ai/ha): 10 | Plant response rating, Blackgrass (blackgrass [16]; 500 g ai/ha, postemergence): 90 | Plant response rating, Blackgrass (blackgrass [16]; Postemergence, 125 g ai/ha): 60 | Plant response rating, Ryegrass, Italian (ryegrass, Italian [17]; 500 g ai/ha, postemergence): 80 | Plant response rating, Ryegrass, Italian (ryegrass, Italian [17]; Postemergence, 125 g ai/ha): 60 | Pigweed, Palmer plant response rating (pigweed, palmer [18]; [24]): 100 | Plant response rating, Pigweed, Palmer (pigweed, palmer [18]; [25]): 50 | Plant response rating, Kochia (kochia [19]; 500 g ai/ha, postemergence): 80 | Plant response rating, Kochia (kochia [19]; Postemergence, 125 g ai/ha): 60 | Blackgrass plant response rating (blackgrass [20]; [24]): 90 | Plant response rating, Blackgrass (blackgrass [20]; [25]): 80 | Oat, Wild plant response rating (oat, wild [21]; [24]): 80 | Plant response rating, Oat, Wild (oat, wild [21]; [25]): 0 | Plant response rating, Rice (Flood) (rice): 0 | Wheat plant response rating (wheat [22]; [24]): 30 | Plant response rating, Wheat (wheat [22]; [25]): 10 | Plant response rating, Barnyardgrass (barnyardgrass [23]; 500 g ai/ha, postemergence): 90 | Plant response rating, Barnyardgrass (barnyardgrass [23]; Postemergence, 125 g ai/ha): 20
